Reference: patent US20170157161A1, “Anti-Cancer Therapies” (Threshold Pharmaceuticals, Inc., priority 2015, published 2017)

Legend:
[1] = system: advanced pancreatic cancer; settings: patients with advanced pancreatic cancer; cited from earlier work
[2] = system: pancreatic cancer cell lines; settings: in vitro; cited from earlier work
[3] = system: MiPaca2 human pancreatic cancer cells; assay: MiPaca2 human pancreatic tumor model in nude mice; type: in vivo
Method: A combination of glufosfamide and gemcitabine was administered to nude mice that were carrying tumors derived from type MiPaca2 human pancreatic cancer cells. Mice were administered doses of vehicle control, gemcitabine, glufosfamide, or gemcitabine/glufosfamide combinations as tabulated in Table 1 below (10 mice/group). Glufosfamide was administered i.v., daily for 14 days (Groups 1-4 and 7-12). Gemcitabine was administered at 300 mg/kg, i.p., once a week for three weeks (Groups 6 and 10-12). Gemcitabine was administered at 150 mg/kg, i.p., twice a week for three weeks (Groups 5 and 7-9).

[4] = system: As-PC-1 human pancreatic cancer cells; assay: As-PC-1 human pancreatic tumor model in NMRI nu/nu mice; type: in vivo; settings: glufosfamide i.v. and gemcitabine 1.25 mg/kg i.p., alone or in combination, once daily for 7 days
Method: (§1) A combination of glufosfamide and gemcitabine was administered daily for 7 days to female NMRI nu/nu mice that were carrying tumors derived from HS766-T or As-PC-1 human pancreatic cancer cells. Mice were administered doses of vehicle control (0.9% sodium chloride solution, i.v.), gemcitabine (i.p.), glufosfamide (i.v.) or gemcitabine/glufosfamide combinations once daily for 7 consecutive days. A dose of 1.25 mg/kg was used as the standard dose for gemcitabine throughout the study.

[5] = system: HS766-T human pancreatic cancer cells; assay: HS766-T human pancreatic tumor model in NMRI nu/nu mice; type: in vivo
Method: as §1

For `Nc1nc2[nH]cc(CCc3ccc(C(=O)N[C@@H](CCC(=O)O)C(=O)O)cc3)c2c(=O)[nH]1` [Pemetrexed], the activity in patients [1] is given as “has shown activity in patients with advanced pancreatic cancer” and the “activity against pancreatic cancer cell lines” value [2] is given as “active against pancreatic cancer cell lines in vitro”.
In the case of `Nc1ccn([C@@H]2O[C@H](CO)[C@@H](O)C2(F)F)c(=O)n1` [gemcitabine, 2′-deoxy-2′,2′-difluoro-cytidine], the “deaths of the animals” value ([3]; Group 5: gemcitabine 150 mg/kg i.p. twice a week for three weeks) is reported as “rapid deaths of the animals”, the “reduction in tumor size” value ([3]; Group 6: gemcitabine 300 mg/kg i.p. once a week for three weeks) is reported as “Approximately 50%” and the “inhibitory effect on tumor growth” value [4] is reported as “no apparent inhibitory effect on tumor growth”. For the same compound, the “inhibitory effect on tumor progression” value ([5]; gemcitabine alone 1.25 mg/kg i.p. once daily for 7 days) was “only a marginal inhibitory effect on tumor progression”.
In the case of `O=P(NCCCl)(NCCCl)O[C@@H]1O[C@H](CO)[C@@H](O)[C@H](O)[C@H]1O` [glufosfamide, β-D-glucosyl-ifosfamide mustard], the “reduction in tumor size” value ([3]; Group 3: glufosfamide 30 mg/kg i.v. daily for 14 days) is reported as “modest reduction in tumor size”, the “reduction in tumor size” value ([3]; Group 4: glufosfamide 100 mg/kg i.v. daily for 14 days) is reported as “modest reduction in tumor size” and the “inhibitory effect on tumor growth” value [4] is reported as “no apparent inhibitory effect on tumor growth”. For the same compound, the “onset of tumor growth” value ([5]; 10 mg/kg glufosfamide i.v. once daily for 7 days, compared with gemcitabine alone or vehicle control) was “dramatic delay in the onset of tumor growth”.
